Experimental data published in ChEMBL document CHEMBL5104180, “Design, Synthesis, and Evaluation of New Sugar-Substituted Imidazole Derivatives as Selective c-MYC Transcription Repressors Targeting the Promoter G-Quadruplex” (J Med Chem, 2022).
One block for each compound: values may come before it. Active and inactive are the calls of the source. No cut-off for these calls is given here.

Experiments:
[1] = test system: MDA-MB-231; assay: Antitumor activity against human MDA-MB-231 cells xenografted in BALB/c-nu/nu mouse assessed as tumor growth inhibition at 1 mg/kg, ip measured for 24 days; type: functional; conditions: MDA-MB-231, 576 h, time 24 day, read-out: TGI
[2] = test system: MDA-MB-231; assay: Antitumor activity against human MDA-MB-231 cells xenografted in BALB/c-nu/nu mouse assessed as relative increment ratio at 1 mg/kg, ip measured for 24 days; type: functional; conditions: time 24 day
[3] = Binding affinity to G-rich HRAS DNA (unknown origin) assessed as binding constant by SPR analysis
[4] = test system: MDA-MB-231; assay: Induction of apoptosis in human MDA-MB-231 cells assessed as necrosis at 5 uM measured after 24 hrs by AnnexinV/propidium iodide staining based flow cytometry; type: functional, cell-based
[5] = test system: MDA-MB-231; assay: Antitumor activity against human MDA-MB-231 cells xenografted in BALB/c-nu/nu mouse assessed as relative increment ratio at 2.5 mg/kg, ip measured for 24 days; type: functional; conditions: time 24 day
[6] = Toxicity in BALB/c-nu/nu mouse xenografted with human MDA-MB-231 cells assessed as side effects at 2.5 mg/kg, ip measured after 24 hrs; type: organism-based; conditions: in vivo
[7] = Binding affinity to human G-rich Htg22 DNA assessed as binding constant by SPR analysis
[8] = Binding affinity to Hairpin DNA (unknown origin) assessed as binding constant by SPR analysis
[9] = test system: MDA-MB-231; assay: Downregulation of c-MYC mRNA level in human MDA-MB-231 cells measured after 24 hrs by RT-PCR analysis; type: functional, cell-based
[10] = test system: Quadruplex DNA; assay: Stabilization of c-MYC G4 quadruplex DNA Pu22 (unknown origin) assessed as change in melting temperature at 2 uM by CD spectroscopy; type: nucleic-acid assay
[11] = Cytotoxicity against human HBL-100 cells assessed as reduction in cell viability measured after 48 hrs by MTT assay; type: toxicity, cell-based
[12] = test system: HepG2; assay: Cytotoxicity against human HepG2 cells assessed as reduction in cell viability measured after 48 hrs by MTT assay; type: functional, cell-based; conditions: HepG2, 48 h
[13] = biological target: Quadruplex DNA; assay: Binding affinity to c-MYC G4- quadruplex DNA Pu22 (unknown origin) assessed as binding constant by SPR analysis; type: nucleic-acid assay
[14] = biological target: Quadruplex DNA; assay: Binding affinity to 3' FAM-labeled c-MYC G4 quadruplex DNA Pu22 (unknown origin) by fluorescence quench assay; type: nucleic-acid assay
[15] = test system: MDA-MB-231; assay: Induction of cell cycle arrest in human MDA-MB-231 cells assessed as accumulation at sub G0 phase at 5 uM after 24 hrs by propidium iodide staining based flow cytometric analysis; type: functional
[16] = Toxicity in BALB/c-nu/nu mouse xenografted with human MDA-MB-231 cells assessed as effect on anatomized liver viscera at 2.5 mg/kg, ip measured after 24 hrs; type: organism-based; conditions: in vivo
[17] = test system: MDA-MB-231; assay: Anticancer activity against human MDA-MB-231 cells (OFP negative) expressing c-MYC G4 quadruplex DNA assessed as arrest of growth measured after 48 hrs by DAPI staining based orange fluorescent protein assay; type: functional, cell-based
[18] = test system: MDA-MB-231; assay: Cytotoxicity against human MDA-MB-231 cells assessed as reduction in cell viability measured after 24 hrs; type: functional, cell-based
[19] = test system: MDA-MB-231; assay: Inhibition of colony formation in human MDA-MB-231 cells at 5 uM assessed as reduction in colony formation incubated for 10 days and subsequent media replacement with compound for every 2 days by crystal violet staining based assay; type: functional; conditions: MDA-MB-231, 240 h, time 10 day
[20] = test system: MDA-MB-231; assay: Antitumor activity against human MDA-MB-231 cells assessed as reduction in cell invasion measured after 24 hrs using crystal violet staining inverted microscope based transwell assay; type: functional; conditions: MDA-MB-231, 24 h
[21] = biological target: RNA; assay: Binding affinity to NRAS RNA mutant (unknown origin) assessed as binding constant by SPR analysis
[22] = test system: MDA-MB-231; assay: Antitumor activity against human MDA-MB-231 cells xenografted in BALB/c-nu/nu mouse assessed as decrease in c-MYC expression in tumor tissue; type: functional, cell-based
[23] = test system: MDA-MB-231; assay: Cytotoxicity against human MDA-MB-231 cells measured after 48 hrs; type: functional, cell-based
[24] = biological target: Quadruplex DNA; assay: Binding affinity to c-MYC G4 quadruplex DNA Pu22 (unknown origin) assessed as binding constant by SPR analysis; type: nucleic-acid assay
[25] = test system: NM23-H2/c-MYC G4 quadruplex DNA (Homo sapiens); assay: Disruption of NM23-H2/c-MYC G4 quadruplex DNA interaction in MDA-MB-231 cells; type: cell-based
[26] = test system: Quadruplex DNA; assay: Inhibition of c-MYC G4 quadruplex DNA in HEK293T cells co-transfected with Renilla and firefly luciferase assessed as decrease in relative luciferase measured after 24 hrs by dual luciferase reporter assay; type: cell-based; conditions: Homo sapiens
[27] = test system: NM23-H2/c-MYC G4 quadruplex DNA; assay: Disruption of NM23-H2/c-MYC G4 quadruplex DNA (unknown origin) interaction incubated for 1 hrs by ELISA; type: protein assay
[28] = test system: MDA-MB-231; assay: Inhibition of colony formation in human MDA-MB-231 cells at 0.125 to 5 uM assessed as reduction in colony formation incubated for 10 days and subsequent media replacement with compound for every 2 days by crystal violet staining based assay; type: functional, cell-based; conditions: dose 0.125-5 µM, time 10.0 day
[29] = Toxicity in BALB/c-nu/nu mouse xenografted with human MDA-MB-231 cells assessed as change in body weight at 2.5 mg/kg, ip; type: organism-based; conditions: in vivo
[30] = test system: HepG2; assay: Cytotoxicity against human HepG2 cells measured after 48 hrs; type: functional, cell-based
[31] = test system: HBL-100; assay: Cytotoxicity against human HBL-100 cells measured after 48 hrs; type: toxicity, cell-based; conditions: hbl-100, 48 h
[32] = test system: MDA-MB-231; assay: Induction of cell cycle arrest in human MDA-MB-231 cells assessed as decrease in accumulation at G2/M phase at 5 uM after 24 hrs by propidium iodide staining based flow cytometric analysis; type: functional
[33] = Binding affinity to G-rich KRAS DNA (unknown origin) assessed as binding constant by SPR analysis
[34] = test system: MCF7; assay: Cytotoxicity against human MCF7 cells measured after 48 hrs; type: functional, cell-based
[35] = test system: SiHa; assay: Cytotoxicity against human SiHa cells measured after 48 hrs; type: functional, cell-based
[36] = test system: NCM460; assay: Cytotoxicity against human NCM460 cells measured after 48 hrs; type: toxicity, cell-based; conditions: ncm460, 48 h
[37] = test system: MDA-MB-231; assay: Cytotoxicity against human MDA-MB-231 cells assessed as reduction in cell viability measured after 48 hrs by MTT assay; type: functional, cell-based; conditions: MDA-MB-231, 48 h
[38] = Toxicity in BALB/c-nu/nu mouse xenografted with human MDA-MB-231 cells assessed as effect on anatomized spleen viscera at 2.5 mg/kg, ip measured after 24 hrs; type: organism-based; conditions: in vivo
[39] = Toxicity in BALB/c-nu/nu mouse xenografted with human MDA-MB-231 cells assessed as effect on anatomized lung viscera at 2.5 mg/kg, ip measured after 24 hrs; type: organism-based; conditions: in vivo
[40] = test system: MDA-MB-231; assay: Antitumor activity against human MDA-MB-231 cells xenografted in BALB/c-nu/nu mouse assessed as tumor growth inhibition at 2.5 mg/kg, ip measured for 24 days; type: functional; conditions: MDA-MB-231, 576 h, time 24 day, read-out: TGI
[41] = test system: DHX36/c-MYC G4 quadruplex DNA; assay: Disruption of DHX36/c-MYC G4 quadruplex DNA (unknown origin) interaction incubated for 1 hrs by ELISA; type: protein assay
[42] = test system: MDA-MB-231; assay: Induction of apoptosis in human MDA-MB-231 cells assessed as early apoptosis at 5 uM measured after 24 hrs by AnnexinV/propidium iodide staining based flow cytometry; type: functional, cell-based
[43] = Toxicity in BALB/c-nu/nu mouse xenografted with human MDA-MB-231 cells assessed as effect on anatomized kidney viscera at 2.5 mg/kg, ip measured after 24 hrs; type: organism-based; conditions: in vivo
[44] = Toxicity in BALB/c-nu/nu mouse xenografted with human MDA-MB-231 cells assessed as effect on anatomized heart viscera at 2.5 mg/kg, ip measured after 24 hrs; type: organism-based; conditions: in vivo
[45] = test system: MDA-MB-231; assay: Downregulation of c-MYC expression in human MDA-MB-231 cells measured after 48 hrs by western blot analysis; type: functional, cell-based
[46] = test system: Quadruplex DNA; assay: Inhibition of c-MYC G4 quadruplex DNA in human MDA-MB-231 cells assessed as decrease in c-MYC immunoprecipitation at 1.25 to 5 uM measured after 24 hrs by chromatin immunoprecipitation assay; type: cell-based; conditions: dose 1.25-5 µM
[47] = test system: Quadruplex DNA; assay: Inhibition of c-MYC G4 quadruplex DNA in HEK293T cells co-transfected with Renilla and firefly luciferase assessed as decrease in relative luciferase at 2.5 to 5 uM measured after 24 hrs by dual luciferase reporter assay; type: cell-based; conditions: Homo sapiens, dose 2.5-5 µM
[48] = biological target: Quadruplex DNA; assay: Binding affinity to 5' FAM-labeled c-MYC G4 quadruplex DNA Pu22 (unknown origin) by fluorescence quench assay; type: nucleic-acid assay
[49] = Binding affinity to G-rich NRAS RNA (unknown origin) assessed as binding constant by SPR analysis
[50] = test system: BLM/c-MYC G4 quadruplex DNA; assay: Disruption of BLM/c-MYC G4 quadruplex DNA (unknown origin) interaction incubated for 1 hrs by ELISA; type: protein assay

SMILES: COc1cccc2c1C(=O)c1c(O)c3c(c(O)c1C2=O)C[C@@](O)(C(=O)CO)C[C@@H]3O[C@H]1C[C@H](N)[C@H](O)[C@H](C)O1 [DOXORUBICIN]
inhibition in vivo at 1 mg/kg [1]: 80.2% | Activity [2]: 85.4%

Kd [3]: > 20 µM | Kd [7]: > 20 µM | Kd [8]: > 20 µM | ΔTm [10]: 20.3 °C | Kd [13]: 3.8 µM | Kd [14]: 2.94 µM | IC50 [20]: 7 µM | Kd [21]: > 20 µM | Kd [24]: > 20 µM | Activity [25]: Active | IC50 [27]: 0.16 µM | Kd [33]: 16.4 µM | IC50 [41]: 7 µM | Kd [48]: 0.56 µM | Kd [49]: > 20 µM | IC50 [50]: 2.3 µM
SMILES: CCn1c2ccccc2c2cc(-c3nc(-c4ccc(N5CCN(C)CC5)cc4)c(-c4ccc(N5CCN(C)CC5)cc4)n3-c3ccc(OCCOCCOC4(C)O[C@H]5O[C@H](CO)[C@@H](O)[C@H](O)[C@H]5O4)cc3)ccc21 (single isomer, unassigned)
Activity [4]: Active | Activity [5]: 89.9% | Activity [6]: Non-Toxic | Activity [9]: Active | IC50 at 48 h [11]: > 100 µM | IC50 [12]: 5 µM | inhibition at 5 µM [15]: 20% | Activity [16]: Non-Toxic | Activity [17]: Active | Activity [18]: Active | inhibition at 5 µM [19]: 100% | Activity [22]: Active | Activity [23]: Active | Activity [26]: Active | inhibition [28]: Active | Activity [29]: Non-Toxic | Activity [30]: Active | Activity [31]: Toxic | Activity [32]: Active | Activity [34]: Active | Activity [35]: Active | Activity [36]: Toxic | IC50 [37]: 3.9 µM | Activity [38]: Non-Toxic | Activity [39]: Non-Toxic | inhibition in vivo at 2.5 mg/kg [40]: 87.8% | Activity [42]: Active | Activity [43]: Non-Toxic | Activity [44]: Non-Toxic | Activity [45]: Active | inhibition [46]: Active | inhibition [47]: Active
